The values below come from patent US11046699B2, “Pyrazolo-pyrimidin-amino-cycloalkyl compounds and their therapeutic uses” (RAPT THERAPEUTICS, INC., priority 2018, dated 2021).

GCN2, sequence (Q9P2K8 whole entry): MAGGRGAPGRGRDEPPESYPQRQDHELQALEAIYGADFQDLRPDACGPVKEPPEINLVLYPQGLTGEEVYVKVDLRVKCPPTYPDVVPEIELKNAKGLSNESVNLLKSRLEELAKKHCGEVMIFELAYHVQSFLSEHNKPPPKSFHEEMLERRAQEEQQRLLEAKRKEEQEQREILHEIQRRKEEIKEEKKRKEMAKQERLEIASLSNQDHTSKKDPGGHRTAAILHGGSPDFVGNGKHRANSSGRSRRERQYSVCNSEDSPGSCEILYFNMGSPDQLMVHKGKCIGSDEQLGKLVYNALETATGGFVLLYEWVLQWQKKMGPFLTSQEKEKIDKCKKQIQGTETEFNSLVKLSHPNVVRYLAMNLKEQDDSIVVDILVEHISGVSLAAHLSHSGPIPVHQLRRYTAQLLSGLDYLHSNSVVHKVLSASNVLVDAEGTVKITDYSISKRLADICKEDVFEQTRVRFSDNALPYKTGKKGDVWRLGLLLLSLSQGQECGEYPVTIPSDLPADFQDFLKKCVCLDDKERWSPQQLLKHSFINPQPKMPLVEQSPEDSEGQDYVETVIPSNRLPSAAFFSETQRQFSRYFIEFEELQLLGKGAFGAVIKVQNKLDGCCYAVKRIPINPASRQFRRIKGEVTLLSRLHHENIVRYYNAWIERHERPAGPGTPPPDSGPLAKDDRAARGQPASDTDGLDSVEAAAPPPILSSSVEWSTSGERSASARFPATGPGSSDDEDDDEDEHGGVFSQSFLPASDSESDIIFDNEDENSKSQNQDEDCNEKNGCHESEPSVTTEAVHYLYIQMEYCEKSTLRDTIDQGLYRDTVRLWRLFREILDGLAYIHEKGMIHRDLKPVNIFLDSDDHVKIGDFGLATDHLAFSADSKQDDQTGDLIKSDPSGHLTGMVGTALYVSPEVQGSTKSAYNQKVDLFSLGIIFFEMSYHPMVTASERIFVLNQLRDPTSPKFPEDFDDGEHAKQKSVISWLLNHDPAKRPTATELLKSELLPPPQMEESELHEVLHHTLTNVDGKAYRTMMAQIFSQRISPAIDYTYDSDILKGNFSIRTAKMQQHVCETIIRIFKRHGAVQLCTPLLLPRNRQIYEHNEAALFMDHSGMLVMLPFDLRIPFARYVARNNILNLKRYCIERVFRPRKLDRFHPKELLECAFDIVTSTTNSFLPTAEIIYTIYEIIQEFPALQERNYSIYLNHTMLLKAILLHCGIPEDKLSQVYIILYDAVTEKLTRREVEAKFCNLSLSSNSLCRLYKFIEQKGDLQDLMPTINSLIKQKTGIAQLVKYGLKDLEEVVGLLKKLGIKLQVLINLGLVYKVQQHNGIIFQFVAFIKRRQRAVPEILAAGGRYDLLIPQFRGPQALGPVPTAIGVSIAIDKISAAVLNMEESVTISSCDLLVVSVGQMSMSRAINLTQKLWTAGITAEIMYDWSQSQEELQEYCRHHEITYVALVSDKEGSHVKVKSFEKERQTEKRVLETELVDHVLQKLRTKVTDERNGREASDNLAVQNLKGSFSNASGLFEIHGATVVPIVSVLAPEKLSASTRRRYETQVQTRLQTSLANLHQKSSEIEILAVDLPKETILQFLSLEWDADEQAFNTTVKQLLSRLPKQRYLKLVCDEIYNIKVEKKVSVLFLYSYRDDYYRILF

The first experiment addresses GCN2 (Homo sapiens, UniProt Q9P2K8). The experiment can be described thus: GCN2 enzymatic endpoint assay: phosphorylation of GFP-eIF2α measured by TR-FRET (Lanthascreen). In kind it is biochemical. The following applies: GCN2 biochemical IC50; 4 nM GCN2, 2 μM ATP, 80 nM GFP-eIF2α, 90 min RT; read-out: GCN2 activity. Put shortly:
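Phosphorylated eIF2α read by Lanthascreen TR-FRET (acceptor 520 nm over donor 495 nm) after EDTA stop. The reaction ran 90 min at room temperature on 80 nM GFP-eIF2α with 2 μM ATP.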
(Time-resolved FRET reads energy transfer from a long-lived donor to a nearby acceptor.)
Take `COCCC(=O)N[C@H]1C[C@H](Nc2ncc3c(Br)nn(-c4ccc5ncccc5c4)c3n2)C1` [Example 3, N-((1r,3r)-3-((3-bromo-1-(quinolin-6-yl)-1H-pyrazolo[3,4-d]pyrimidin-6-yl)amino)cyclobutyl)-3-methoxypropanamide]: the IC50 was 500 to 1000 nM.
Turning to `COCCNC(=O)[C@@H]1CC[C@@H](Nc2ncc3c(I)nn(-c4ccc5ncccc5c4)c3n2)C1` [Example 13, (1R,3R)-3-((3-iodo-1-(quinolin-6-yl)-1H-pyrazolo[3,4-d]pyrimidin-6-yl)amino)-N-(2-methoxyethyl)cyclopentane-1-carboxamide], the IC50 was less than 25 nM.
Consider `CNC(=O)[C@]1(C)CC[C@@H](Nc2ncc3c(Br)nn(-c4cc([C@@H](C)N)c5nccnc5c4)c3n2)C1` [Example 34, (1R,3R)-3-((1-(8-((R)-1-aminoethyl)quinoxalin-6-yl)-3-bromo-1H-pyrazolo[3,4-d]pyrimidin-6-yl)amino)-N,1-dimethylcyclopentane-1-carboxamide; 2,2,2-trifluoroacetic acid], for which the IC50 is less than 25 nM.
`COCCNC(=O)[C@@H]1CC[C@@H](Nc2ncc3c(Br)nn(-c4ccc5cnccc5c4)c3n2)C1` [Example 6, (1R,3R)-3-((3-bromo-1-(isoquinolin-6-yl)-1H-pyrazolo[3,4-d]pyrimidin-6-yl)amino)-N-(2-methoxyethyl)cyclopentane-1-carboxamide]: the IC50 lay in the range of 25 to 200 nM.
Regarding `CNC(=O)[C@]1(CC(F)F)CC[C@@H](Nc2ncc3c(Br)nn(-c4ccc(-c5nnc(C)s5)c(CCC#N)c4)c3n2)C1` [Example 53, (1R,3R)-3-((3-bromo-1-(3-(2-cyanoethyl)-4-(5-methyl-1,3,4-thiadiazol-2-yl)phenyl)-1H-pyrazolo[3,4-d]pyrimidin-6-yl)amino)-1-(2,2-difluoroethyl)-N-methylcyclopentane-1-carboxamide; 2,2,2-trifluoroacetic acid], the IC50 lay within 25 to 200 nM.

Staying with this experiment, now noted: tested as described in Example 77; compound and/or hydrochloride, dihydrochloride or trifluoroacetic acid salt; read-out: IC 50 Activity.
Consider `O=C([C@@H]1CC[C@@H](Nc2ncc3c(Br)nn(-c4ccc5ncccc5c4)c3n2)C1)N1CCC2(CNC2)C1` [((1R,3R)-3-((3-bromo-1-(quinolin-6-yl)-1H-pyrazolo[3,4-d]pyrimidin-6-yl)amino)cyclo-pentyl)(2,6-diazaspiro[3.4]octan-6-yl) methanone], for which the IC50 was less than 25 nM.
As for `CNC(=O)[C@]1(C)CC[C@@H](Nc2ncc3c(Br)nn(-c4cc(Br)cc(CN)c4)c3n2)C1`, the IC50 is 25 to 200 nM.
Take `CNC(=O)[C@]1(C)CC[C@@H](Nc2ncc3c(Br)nn(-c4ccc5c(c4)C(=O)NC5=O)c3n2)C1` [(1R,3R)-3-[[3-bromo-1-(1,3-dioxo-isoindolin-5-yl)pyrazolo[3,4-d]pyrimidin-6-yl]amino]-N,1-dimethyl-cyclopentanecarboxamide]: the IC50 lay within 25 to 200 nM.
Consider `Cc1nnc(-c2ccc(-n3nc(Br)c4cnc(N[C@@H]5CCC(C)(CP(C)(C)=O)C5)nc43)cc2CCC#N)s1` (stereo partly drawn), for which the IC50 is 25 to 200 nM.
Same read-out and setting: under `CS(=O)(=O)CCNC(=O)[C@@H]1CC[C@@H](Nc2ncc3c(Br)nn(-c4ccc5ncc(F)cc5c4)c3n2)C1` stands 200 to 500 nM; under `Cc1nnc(-c2ccc(-n3nc(Br)c4cnc(N[C@@H]5CCC(C)(C(=O)N6CCNCC6)C5)nc43)cc2)o1` (stereo partly drawn) [[(3R)-3-[[3-bromo-1-[4-(5-methyl-1,3,4-oxadiazol-2-yl)phenyl]pyrazolo[3,4-d]pyrimidin-6-yl]amino]-1-methyl-cyclo-pentyl]-piperazin-1-yl-methanone], 25 to 200 nM.
With `COC(=O)C1CN(C(=O)[C@@H]2CC[C@@H](Nc3ncc4c(Br)nn(-c5ccc6ncccc6c5)c4n3)C2)CCN1` (mixture of isomers), the IC50 fell in the range of 25 to 200 nM.
Regarding `CNC(=O)[C@]1(C)CC[C@@H](Nc2ncc3c(Br)nn(-c4ccc5ncsc5c4)c3n2)C1` [(1R,3R)-3-[[1-(1,3-benzothiazol-6-yl)-3-bromo-pyrazolo[3,4-d]pyrimidin-6-yl]amino]-N,1-dimethyl-cyclopentane-carboxamide], the IC50 was 25 to 200 nM.
Consider `Cc1nnc(-c2ccc(-n3nc(Br)c4cnc(N[C@@H]5CC[C@@H](NC(=O)C6CNC6)C5)nc43)cc2)s1`, for which the IC50 fell in the range of 25 to 200 nM.
In the case of `Cc1ccc2cc(-n3nc(Br)c4cnc(N[C@@H]5CC[C@@H](P(C)(C)=O)C5)nc43)cc(CCO)c2n1` [2-[6-[3-bromo-6-[[(1R,3R)-3-dimethyl-phosphorylcyclopentyl]amino]pyrazolo [3,4-d]pyrimidin-1-yl]-2-methyl-8-quinolyl]ethanol], the IC50 was 25 to 200 nM.
As to `CNC(=O)[C@]1(C)CC[C@@H](Nc2ncc3c(Br)nn(-c4cc(Cl)cc(OCC(C)O)c4)c3n2)C1` (stereo partly drawn) [(1R,3R)-3-[[3-bromo-1-[3-chloro-5-(2-hydroxypropoxy)phenyl]pyrazolo[3,4-d]pyrimidin-6-yl]amino]-N,1-dimethyl-cyclopentanecarboxamide], the IC50 fell in the range of 25 to 200 nM.
For `CS(=O)(=O)CCNC(=O)C12CCC(Nc3ncc4c(Br)nn(-c5ccc6ncccc6c5)c4n3)(C1)C2` [4-((3-bromo-1-(quinolin-6-yl)-1H-pyrazolo [3,4-d]pyrimidin-6-yl)amino)-N-(2-(methyl-sulfonyl)ethyl)bicyclo[2.1.1]hexane-1-carboxamide], the IC50 lay within 200 to 500 nM.
The same measure, in the same setting: under `CNC(=O)[C@H]1C[C@H](Nc2ncc3c(Br)nn(-c4ccc(-c5nnc(C)s5)cc4)c3n2)CO1` [(2R,4S)-4-[[3-bromo-1-[4-(5-methyl-1,3,4-thiadiazol-2-yl)phenyl]pyrazolo [3,4-d]pyrimidin-6-yl]amino]-N-methyl-tetrahydrofuran-2-carboxamide] stands 25 to 200 nM; under `CNC(=O)[C@]1(C)CC[C@@H](Nc2ncc3c(Br)nn(-c4cc(CNCCC#N)c5ncccc5c4)c3n2)C1` [(1R,3R)-3-[[3-bromo-1-[8-[(2-cyanoethyl-amino)methyl]-6-quinolyl]pyrazolo[3,4-d]pyrimidin-6-yl]amino]-N,1-dimethyl-cyclopentanecarboxamide], 25 to 200 nM.
On the same count and under the same terms, the value for `CCCCNC(=O)[C@@H]1CC[C@@H](Nc2ncc3c(Br)nn(-c4cc(C#N)c5ncccc5c4)c3n2)C1` [(1R,3R)-3-((3-bromo-1-(8-cyanoquinolin-6-yl)-1H-pyrazolo[3,4-d]pyrimidin-6-yl)amino)-N-butylcyclopentane-1-carboxamide] was 200 to 500 nM.
For the compound `CNC(=O)[C@@]1(CC(F)(F)F)CC[C@@H](Nc2ncc3c(Br)nn(-c4ccc(-c5nnc(C)s5)cc4)c3n2)C1`, the IC50 was in the range of 25 to 200 nM.
Consider `CNC(=O)[C@]1(C)CC[C@@H](Nc2ncc3c(Br)nn(-c4cc(N)c5ncccc5c4)c3n2)C1` [(1R,3R)-3-[[1-(8-amino-6-quinolyl)-3-bromo-pyrazolo[3,4-d]pyrimidin-6-yl]amino]-N,1-dimethyl-cyclopentane-carboxamide], for which the IC50 lay within 25 to 200 nM.
Take `CNC(=O)[C@]1(C)CC[C@@H](Nc2ncc3c(Br)nn(-c4cc(CCCN)c5ncccc5c4)c3n2)C1` [(1R,3R)-3-[[1-[8-(3-aminopropyl)-6-quinolyl]-3-bromo-pyrazolo[3,4-d]pyrimidin-6-yl]amino]-N,1-dimethyl-cyclopentanecarboxamide]: the IC50 lay in the range of 25 to 200 nM.
Take `CC#CC(=O)NCCc1cc(-n2nc(Br)c3cnc(N[C@@H]4CC[C@@](C)(C(=O)NC)C4)nc32)cc2cccnc12` [(1R,3R)-3-[[3-bromo-1-[8-[2-(but-2-ynoylamino)ethyl]-6-quinolyl]pyrazolo [3,4-d]pyrimidin-6-yl]amino]-N,1-dimethyl-cyclopentanecarboxamide]: the IC50 was 25 to 200 nM.
